Laboratory results taken from US20120309734A1, “COMBRETASTATIN DERIVATIVES AND USES THEREFOR” (priority 2009, published 2012).

Experiments:
[1] = tested on: MCF-7 breast cancer cell line; experiment: Antiproliferation study, MTT cell viability assay; format: cell-based; settings: Homo sapiens, MCF7, 72 h, antiproliferative activity, MTT, 72 h; read-out: IC50 (μM) MCF-7 cell line
How it was run: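 Cells seeded at 2.5×10^4 cells/ml and grown 24 h at 37 °C before compound treatment; vehicle 1% v/v ethanol. MTT at 1 mg/mL final for 2 h at 37 °C, then DMSO solubilisation and absorbance read. Viability expressed as % of untreated control, in triplicate, with compounds tested as free bases.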

[2] = molecular target: T1, p-glycoprotein (Homo sapiens, UniProt P08183); experiment: Anti-proliferative effects in multi-drug resistant cells, conclusion on efflux; format: cell-based; settings: concluded from resistance factors
T1 construct: HL-60-MDR (overexpress p-glycoprotein); endogenous in cells; host or cells: HL-60-MDR, A2780-ADR
T1 sequence (P08183 whole entry): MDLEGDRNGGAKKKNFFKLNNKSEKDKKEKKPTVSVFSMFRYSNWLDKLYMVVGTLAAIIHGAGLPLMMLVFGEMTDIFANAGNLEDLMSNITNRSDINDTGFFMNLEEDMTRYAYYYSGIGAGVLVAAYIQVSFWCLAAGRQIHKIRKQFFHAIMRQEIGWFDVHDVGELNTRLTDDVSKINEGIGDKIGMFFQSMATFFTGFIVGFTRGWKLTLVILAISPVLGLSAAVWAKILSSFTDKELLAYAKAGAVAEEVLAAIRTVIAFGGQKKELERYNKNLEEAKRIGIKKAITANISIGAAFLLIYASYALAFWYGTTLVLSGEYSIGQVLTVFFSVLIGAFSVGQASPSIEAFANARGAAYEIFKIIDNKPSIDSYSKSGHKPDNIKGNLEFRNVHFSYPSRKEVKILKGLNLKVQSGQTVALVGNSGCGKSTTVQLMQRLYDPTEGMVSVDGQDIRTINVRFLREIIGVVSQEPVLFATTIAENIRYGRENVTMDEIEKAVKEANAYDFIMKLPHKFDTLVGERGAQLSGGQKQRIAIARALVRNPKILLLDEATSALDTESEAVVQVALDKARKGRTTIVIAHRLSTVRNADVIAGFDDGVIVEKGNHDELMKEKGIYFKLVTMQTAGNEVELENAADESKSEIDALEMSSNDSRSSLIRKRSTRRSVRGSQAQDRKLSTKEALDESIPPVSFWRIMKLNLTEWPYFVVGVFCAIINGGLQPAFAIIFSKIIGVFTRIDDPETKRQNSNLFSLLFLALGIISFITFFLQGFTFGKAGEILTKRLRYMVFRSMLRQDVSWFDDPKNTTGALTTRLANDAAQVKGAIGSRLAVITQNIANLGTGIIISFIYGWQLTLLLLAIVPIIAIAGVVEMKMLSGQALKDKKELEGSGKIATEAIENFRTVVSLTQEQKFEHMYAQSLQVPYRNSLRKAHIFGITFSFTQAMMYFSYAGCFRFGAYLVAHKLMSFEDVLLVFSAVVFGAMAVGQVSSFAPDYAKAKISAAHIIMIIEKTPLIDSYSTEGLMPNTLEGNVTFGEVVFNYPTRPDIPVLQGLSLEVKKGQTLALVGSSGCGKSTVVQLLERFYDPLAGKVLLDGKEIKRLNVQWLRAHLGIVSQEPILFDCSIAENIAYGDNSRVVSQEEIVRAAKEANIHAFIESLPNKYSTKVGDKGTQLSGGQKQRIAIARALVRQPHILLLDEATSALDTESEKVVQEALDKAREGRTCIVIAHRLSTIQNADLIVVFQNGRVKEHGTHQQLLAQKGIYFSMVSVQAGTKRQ
Experimental: Three drug resistant cell lines and respective parental cell lines were assessed. […] Western blot analysis confirmed the overexpression of p-glycoprotein and BCRP in respective cell lines.
Cells were exposed to multiple concentrations of the indicated compound for 72 h. Cell viability was assessed using the Alamar blue assay and respective IC50 values were calculated. The resistance factor (RF) was calculated by dividing the IC50 of the resistant cell line/IC50 of the parental cell line.

[3] = tested on: primary CML cells (BCR-ABL-positive); experiment: Apoptosis in ex vivo CML cells, annexin V staining; format: cell-based, human; settings: 72 h
Text: This study is the first pre-clinical evaluation of combretastatins in the treatment of chemotherapy naive and patients with acquired imatinib mesylate resistance (refractory or relapsed disease despite adequate dose and duration). Imatinib mesylate is the first line treatment in BCR-ABL-positive CML chemotherapy. BCR-ABL, a constitutively active protein tyrosine kinase is a product of the Philadelphia chromosome (Ph) translocation t(9;22) and plays a central role in the pathogenesis of CML. […] All cells were treated with a clinically achievable concentration of imatinib mesylate (indicated as STI in FIG. 3) [250 nM]. […] The percentage apoptosis was determined by flow cytometric analysis of annexin-V stained cells.
The percentage of apoptosis in ex-vivo CML cells was determined by annexin V staining. […] Cells were collected by centrifugation at 400×g for 5 min and resuspended in anti-CD-45 diluted 1:50 in RPMI medium. Following a 10 min incubation in the dark at room temperature, cells were centrifuged and washed in Annexin binding buffer (Biosource, Nivelles, Belgium). Cells were again centrifuged and resuspended in Annexin-V-FITC (IQ products, Netherlands) diluted in Annexin binding buffer (1:50). Samples were next incubated in the dark on ice for 15 min. Annexin binding buffer (1 ml) was added to each sample. Samples were collected by centrifugation and resuspended in 0.5 ml of Annexin binding buffer. Cells were read immediately by flow cytometry and analysed by Cellquest software. CML cells were selected and gated based on their low to medium side scatter and low CD45 expression.

[4] = tested on: SNB-75; experiment: NCI60 cell line screen; format: cell-based; settings: Homo sapiens, CNS
[5] = tested on: K-562; experiment: NCI60 cell line screen; settings: Homo sapiens, K562
[6] = tested on: A549/ATCC; experiment: NCI60 cell line screen; settings: Homo sapiens
[7] = tested on: NCI-H552; experiment: NCI60 cell line screen
[8] = tested on: HCT-15; experiment: NCI60 cell line screen; settings: Homo sapiens
[9] = tested on: U251; experiment: NCI60 cell line screen; settings: Homo sapiens, U-251
[10] = tested on: SK-MEL-28; experiment: NCI60 cell line screen; settings: Homo sapiens
[11] = tested on: UACC-62; experiment: NCI60 cell line screen; settings: Homo sapiens
[12] = tested on: IGROV1; experiment: NCI60 cell line screen; settings: Homo sapiens, IGROV-1
[13] = tested on: OVCAR-4; experiment: NCI60 cell line screen; settings: Homo sapiens
[14] = tested on: OVCAR-8; experiment: NCI60 cell line screen; settings: Homo sapiens
[15] = tested on: SK-OV-3; experiment: NCI60 cell line screen; settings: Homo sapiens
[16] = tested on: ACHN; experiment: NCI60 cell line screen; settings: Homo sapiens
[17] = tested on: PC-3; experiment: NCI60 cell line screen; settings: Homo sapiens
[18] = tested on: MDA-MB-231/ATCC; experiment: NCI60 cell line screen; settings: Homo sapiens
[19] = Stability by HPLC at three pH values; format: physicochemical; settings: for half-life: all pH values (4, 7.4, 9), HPLC; for stability at varying pH: pH 4, 7.4, 9, HPLC
Experimental: The stability of β-lactam compounds 4, 8 and 12 was assessed by HPLC at three different pH values. […] The half-lives of 8 and 12 were both greater than 24 hours at all pH values. The stability of three ester prodrug derivatives of 4, i.e. 29, 30 and 31, was also assessed (FIG. 6).

[20] = tested on: HOP-62; experiment: NCI60 cell line screen; settings: Homo sapiens
[21] = tested on: MOLT-4; experiment: NCI60 cell line screen; settings: Homo sapiens
[22] = tested on: MALME-3M; experiment: NCI60 cell line screen; settings: Homo sapiens

| SMILES | IC50 [1] [µM] | GI50 [5] [nM] | GI50 [6] [nM] | GI50 [7] [nM] | GI50 [8] [nM] | GI50 [9] [nM] | GI50 [10] [nM] | GI50 [11] [nM] | GI50 [12] [nM] | GI50 [13] [nM] | GI50 [14] [nM] | GI50 [15] [nM] | GI50 [16] [nM] | GI50 [17] [nM] | GI50 [18] [nM] | half-life [19] [h] | stability at varying pH [19] | GI50 [20] [nM] | also measured |
| --- | --- | --- | --- | --- | --- | --- | --- | --- | --- | --- | --- | --- | --- | --- | --- | --- | --- | --- | --- |
| COc1ccc(C2C(c3ccccc3)C(=O)N2c2cc(OC)c(OC)c(OC)c2)cc1O (stereo not shown) [Compound 4, 4-(3-Hydroxy-4-methoxyphenyl)-3-phenyl-1-(3,4,5-trimethoxyphenyl)-azetidin-2-one] | 0.0096 | < 10 | < 10 | 5150 | < 10 | < 10 | < 10 | < 10 | < 10 | 18 | 10 | 37 | < 10 | < 10 | < 10 |  |  |  | substrate for the p-glycoprotein [2]: poor substrates for the p-glycoprotein; apoptosis induction compared with imatinib mesylate ([3]; 250 nM each, patient samples): more effective inducers of apoptosis than imatinib mesylate; apoptosis in primary CML cells ([3]; 250 nM, chemotherapy naïve (4 samples) and imatinib mesylate resistant (2 samples)): induced apoptosis; GI50 [4]: 47 nM |
| COc1ccc(C2C(c3cccs3)C(=O)N2c2cc(OC)c(OC)c(OC)c2)cc1 (stereo not shown) [Compound 12, 4-(4-Methoxyphenyl)-3-thiophen-2-yl-1-(3,4,5-trimethoxyphenyl)-azetidin-2-one] | 0.064 |  | 23 | < 10 | 26 | 37 | 10 | < 10 | 20 | 13 | < 10 | 38 | < 10 | < 10 | 10 | > 24 | least stable at acidic pH 4 and relatively stable at pH's 7.4 and 9 | 70 |  |
| COc1ccc(C2C(c3ccccc3)C(=O)N2c2cc(OC)c(OC)c(OC)c2)cc1 (stereo not shown) [Compound 8, 4-(4-Methoxy-phenyl)-3-phenyl-1-(3,4,5-trimethoxy-phenyl)-azetidin-2-one] | 0.034 | 29.1 | 238 | 96.6 | 170 | 95 | 405 | 40.5 | 285 | 82.5 | 125 | 412 | 138 |  | 200 | > 24 | least stable at acidic pH 4 and relatively stable at pH's 7.4 and 9 | 605 | GI50 [21]: 31.6 nM; GI50 [22]: > 100000 nM |
